Experimental data from ChEMBL document CHEMBL4616708, “Antitumor Potential of the Isoflavonoids (+)- and (-)-2,3,9-Trimethoxypterocarpan: Mechanism-of-Action Studies” (ACS Med Chem Lett, 2020).
pIC50: −log10 of the molar value. Calls of active or inactive are those of the source. No cut-off for these calls is given here.

Key:
HCT-116 = assay: Cytotoxicity against human HCT116 cells assessed as reduction in cell viability incubated for 72 hrs by MTT assay; type: functional, cell-based; settings: HCT-116, 72 h
HL-60 = assay: Cytotoxicity against human HL60 cells assessed as reduction in cell viability incubated for 72 hrs by MTT assay; type: functional, cell-based; settings: HL-60, 72 h
OVCAR-8 [1] = assay: Cytotoxicity against human OVCAR8 cells assessed as reduction in cell viability incubated for 72 hrs by MTT assay; type: functional, cell-based; settings: OVCAR-8, 72 h
SF-295 = assay: Cytotoxicity against human SF295 cells assessed as reduction in cell viability incubated for 72 hrs by MTT assay; type: functional, cell-based; settings: SF-295, 72 h
OVCAR-8 [2] = assay: Cytotoxicity against human OVCAR8 cells assessed as reduction in cell viability at 1 to 4 uM measured upto 98 hrs by xcCELLigence RTCA analysis; type: functional, cell-based
OVCAR-8 [3] = assay: Cell cycle arrest in human OVCAR8 cells assessed as accumulation at G0/G1 phase at 5 uM incubated for 24 hrs by propidium iodide staining based flow cytometry (reference value: 67.06 +/- 1.42%); type: functional
OVCAR-8 [4] = assay: Cell cycle arrest in human OVCAR8 cells assessed as accumulation at G0/G1 phase at 10 uM incubated for 24 hrs by propidium iodide staining based flow cytometry (reference value: 67.06 +/- 1.42%); type: functional
OVCAR-8 [5] = assay: Cell cycle arrest in human OVCAR8 cells assessed as accumulation at S phase at 5 uM incubated for 24 hrs by propidium iodide staining based flow cytometry (reference value: 7.1 +/- 0.86%); type: functional
OVCAR-8 [6] = assay: Cell cycle arrest in human OVCAR8 cells assessed as accumulation at S phase at 10 uM incubated for 24 hrs by propidium iodide staining based flow cytometry (reference value: 7.1 +/- 0.86%); type: functional
OVCAR-8 [7] = assay: Cell cycle arrest in human OVCAR8 cells assessed as accumulation at G2/M phase at 5 uM incubated for 24 hrs by propidium iodide staining based flow cytometry (reference value: 25.78 +/- 0.71%); type: functional
OVCAR-8 [8] = assay: Cell cycle arrest in human OVCAR8 cells assessed as accumulation at G2/M phase at 10 uM incubated for 24 hrs by propidium iodide staining based flow cytometry (reference value: 25.78 +/- 0.71%); type: functional
OVCAR-8 [9] = assay: Cytotoxicity against human OVCAR8 cells assessed as reduction in cell viability at 0.05 uM measured upto 98 hrs by xcCELLigence RTCA analysis; type: functional, cell-based
OVCAR-8 [10] = assay: Cell cycle arrest in human OVCAR8 cells assessed as accumulation at G0/G1 phase at 0.05 uM incubated for 24 hrs by propidium iodide staining based flow cytometry (reference value: 67.06 +/- 1.42%); type: functional
OVCAR-8 [11] = assay: Cell cycle arrest in human OVCAR8 cells assessed as accumulation at S phase at 0.05 uM incubated for 24 hrs by propidium iodide staining based flow cytometry (reference value: 7.1 +/- 0.86%); type: functional
OVCAR-8 [12] = assay: Cell cycle arrest in human OVCAR8 cells assessed as accumulation at G2/M phase at 0.05 uM incubated for 24 hrs by propidium iodide staining based flow cytometry (reference value: 25.78 +/- 0.71%); type: functional
OVCAR-8 [13] = assay: Induction of apoptosis in human OVCAR8 cells assessed as chromatin condensation at 0.03 uM incubated for 48 hrs by hematoxylin and eosin staining based […] analysis; type: functional, cell-based
OVCAR-8 [14] = assay: Induction of apoptosis in human OVCAR8 cells assessed as reduction in cell volume at 0.03 uM incubated for 48 hrs by hematoxylin and eosin staining based […] analysis; type: functional
OVCAR-8 [15] = assay: Induction of apoptosis in human OVCAR8 cells assessed as nuclear fragmentation at 0.03 uM incubated for 48 hrs by hematoxylin and eosin staining based […] analysis; type: functional, cell-based
OVCAR-8 [16] = assay: Induction of apoptosis in human OVCAR8 cells assessed as reduction in cell viability at 0.03 uM incubated for 48 hrs by acridine orange and ethidium bromide dye based fluorescence microscopy analysis; type: functional
OVCAR-8 [17] = assay: Induction of apoptosis in human OVCAR8 cells assessed as increase in apoptotic cells at 0.03 uM incubated for 48 hrs by acridine orange and ethidium bromide dye based fluorescence microscopy analysis; type: functional, cell-based
Lytechinus variegatus [18] = assay: Antimitotic activity against sea urchin eggs assessed as inhibition of egg development at blastulation stage; type: functional, organism-based
[19] = Cytotoxicity against human PBMC assessed as cell viability at 10 ug/ml incubated for 72 hrs by trypan blue dye based assay; settings: read-out: Activity
Lytechinus variegatus [20] = assay: Antimitotic activity against sea urchin eggs assessed as inhibition of development at second cleavage; type: functional, organism-based
Lytechinus variegatus [21] = assay: Antimitotic activity against sea urchin eggs assessed as inhibition of egg development at first cleavage; type: functional, organism-based
OVCAR-8 [22] = assay: Cytotoxicity against human OVCAR8 cells assessed as reduction in cell viability measured upto 98 hrs by xcCELLigence RTCA analysis; type: functional, cell-based
OVCAR-8 [23] = assay: Cell cycle arrest in human OVCAR8 cells assessed as accumulation at G0/G1 phase at 2.5 uM incubated for 24 hrs by propidium iodide staining based flow cytometry (reference value: 67.06 +/- 1.42%); type: functional
OVCAR-8 [24] = assay: Cell cycle arrest in human OVCAR8 cells assessed as accumulation at G0/G1 phase at 2.5 uM in presence of PTX incubated for 24 hrs by propidium iodide staining based flow cytometry (reference value: 67.06 +/- 1.42%); type: functional
OVCAR-8 [25] = assay: Cell cycle arrest in human OVCAR8 cells assessed as accumulation at S phase at 2.5 uM incubated for 24 hrs by propidium iodide staining based flow cytometry (reference value: 7.1 +/- 0.86%); type: functional
OVCAR-8 [26] = assay: Cell cycle arrest in human OVCAR8 cells assessed as accumulation at S phase at 2.5 uM in presence of PTX incubated for 24 hrs by propidium iodide staining based flow cytometry (reference value: 7.1 +/- 0.86%); type: functional
OVCAR-8 [27] = assay: Cell cycle arrest in human OVCAR8 cells assessed as accumulation at G2/M phase at 2.5 uM incubated for 24 hrs by propidium iodide staining based flow cytometry (reference value: 25.78 +/- 0.71%); type: functional
OVCAR-8 [28] = assay: Cell cycle arrest in human OVCAR8 cells assessed as accumulation at G2/M phase at 2.5 uM in presence of PTX incubated for 24 hrs by propidium iodide staining based flow cytometry (reference value: 25.78 +/- 0.71%); type: functional
MCF7 = assay: Cell cycle arrest in human MCF7 cells assessed as increase in accumulation at G2/M phase at 8 uM incubated for 24 hrs by propidium iodide staining based flow cytometry relative to control; type: functional
OVCAR-8 [29] = assay: Induction of apoptosis in human OVCAR8 cells assessed as reduction in cell viability incubated for 48 hrs by acridine orange and ethidium bromide dye based fluorescence microscopy analysis; type: functional
OVCAR-8 [30] = assay: Induction of apoptosis in human OVCAR8 cells assessed as chromatin condensation at 20 to 40 uM incubated for 48 hrs by hematoxylin and eosin staining based […] analysis; type: functional, cell-based
OVCAR-8 [31] = assay: Induction of apoptosis in human OVCAR8 cells assessed as increase in apoptotic cells incubated for 48 hrs by acridine orange and ethidium bromide dye based fluorescence microscopy analysis; type: functional, cell-based
OVCAR-8 [32] = assay: Induction of apoptosis in human OVCAR8 cells assessed as increase in apoptotic cells at 0.6 uM incubated for 48 hrs by acridine orange and ethidium bromide dye based fluorescence microscopy analysis; type: functional, cell-based
OVCAR-8 [33] = assay: Induction of apoptosis in human OVCAR8 cells assessed as reduction in cell viability at 0.6 uM incubated for 48 hrs by acridine orange and ethidium bromide dye based fluorescence microscopy analysis; type: functional

`COc1ccc2c(c1)O[C@H]1c3cc(OC)c(OC)cc3OC[C@@H]21` gave a pIC50 (HCT-116) of 4.41, a pIC50 (HL-60) of 4.08 and a pIC50 (OVCAR-8 [1]) of 4.08. The pIC50 (SF-295) was 4.48.
In the case of `COc1ccc2c(c1)OC1c3cc(OC)c(OC)cc3OCC21` (racemic), the pIC50 (HCT-116) was 4.94, the pIC50 (HL-60) was 6.12 and the pIC50 (OVCAR-8 [1]) was 5.23. For the same compound, the pIC50 (SF-295) was 4.85, the Activity (OVCAR-8 [2]) was “inactive” and the Activity (OVCAR-8 [3]) was 52.61%. It also gave an Activity (OVCAR-8 [4]) of 46.72%, an Activity (OVCAR-8 [5]) of 10.02% and an Activity (OVCAR-8 [6]) of 10.93%. The Activity (OVCAR-8 [7]) was 37.16% and the Activity (OVCAR-8 [8]) was 42.06%.
For `CC(=O)O[C@H]1C(=O)[C@@]2(C)[C@H]([C@H](OC(=O)c3ccccc3)[C@]3(O)C[C@H](OC(=O)[C@H](O)[C@@H](NC(=O)c4ccccc4)c4ccccc4)C(C)=C1C3(C)C)[C@]1(OC(C)=O)CO[C@@H]1C[C@@H]2O` [PACLITAXEL], the Activity (OVCAR-8 [9]) was “Active”, the Activity (OVCAR-8 [10]) was 34.28% and the Activity (OVCAR-8 [11]) was 15.72%. For the same compound, the Activity (OVCAR-8 [12]) was 49.97%, the Activity (OVCAR-8 [13]) was “Active” and the Activity (OVCAR-8 [14]) was “Active”. The Activity (OVCAR-8 [15]) was “Active”, the Activity (OVCAR-8 [16]) was “Active” and the Activity (OVCAR-8 [17]) was “Active”.
For `COc1ccc2c(c1)O[C@@H]1c3cc(OC)c(OC)cc3OC[C@H]21`, the pIC50 (HCT-116) was 5.62, the pIC50 (HL-60) was 6.70 and the pIC50 (Lytechinus variegatus [18]) was 7.97. It also gave a viability at 72 h, 10 ug/ml [19] of 81%, a pIC50 (Lytechinus variegatus [20]) of 7.91 and a pIC50 (Lytechinus variegatus [21]) of 8.10. For the same compound, the pIC50 (OVCAR-8 [1]) was 5.75, the pIC50 (SF-295) was 5.44 and the Activity (OVCAR-8 [22]) was “Dose-dependent effect”. It also gave an Activity (OVCAR-8 [3]) of 15.83%, an Activity (OVCAR-8 [4]) of 10.84% and an Activity (OVCAR-8 [23]) of 58.16%. It also gave an Activity (OVCAR-8 [24]) of 10.98%, an Activity (OVCAR-8 [5]) of 8.76% and an Activity (OVCAR-8 [6]) of 9.92%. It also gave an Activity (OVCAR-8 [25]) of 9.1%, an Activity (OVCAR-8 [26]) of 10.39% and an Activity (OVCAR-8 [7]) of 75.24%. For the same compound, the Activity (OVCAR-8 [8]) was 79.13%, the Activity (OVCAR-8 [27]) was 32.71% and the Activity (OVCAR-8 [28]) was 78.62%. The Activity (MCF7) was 32%, the Activity (OVCAR-8 [29]) was “Dose-dependent effect” and the Activity (OVCAR-8 [30]) was “Active”. The Activity (OVCAR-8 [31]) was “Dose-dependent effect”.
With `COc1cccc2c1C(=O)c1c(O)c3c(c(O)c1C2=O)C[C@@](O)(C(=O)CO)C[C@@H]3O[C@H]1C[C@H](N)[C@H](O)[C@H](C)O1` [DOXORUBICIN] the pIC50 (HL-60) was 7.40, the pIC50 (SF-295) was 7.10 and the Activity (OVCAR-8 [32]) was “Active”. For the same compound, the Activity (OVCAR-8 [33]) was “Active”.
